Test results reported in patent US12108719B2, “Methods for creating doubled haploid plants” (Monsanto Technology LLC, priority 2015, dated 2024).

Experiments:
[1] = test system: DH0 seedlings of Germplasm A; assay: Doubling efficiency of DH0 plants after co-dominant ear induction treatment (Example 2); type: in vivo, maize
Description: An F1 hybrid-derived haploid induction population derived from female inbred maize plant Germplasm A was germinated in soil and tended in standard greenhouse maize growing conditions for approximately seven days. Seedlings were then subjected to a bulk colchicine-based chromosome doubling treatment as described above. Following treatment, seedlings were transplanted into pots and tended in a greenhouse at standard greenhouse maize growing conditions to recover.
Twenty-nine days after the colchicine doubling treatment, 77 of the DH0 seedlings were subjected to a co-dominant ear induction treatment comprising the addition of 60 mL of 2.5% PBZ (v/v) in water, which was poured into the soil surrounding the roots of each plant. The seedlings were then tended in standard greenhouse maize growing conditions until they flowered, at which time each plant that produced pollen was self-pollinated. After approximately 3-4 weeks, ears were harvested and the kernels (DH1 seeds) that formed on the treated DH0 plants were counted to determine doubling efficiencies.
Doubling efficiencies (DE) were calculated under four different constraints, depending on the minimum number of kernels an ear had to produce in order to even be included in the calculation. DE04 represents the portion of all the doubled DH0 plants that produced a total of at least four seeds when all ears were considered. DE20 represents the portion of all the doubled DH0 plants that produced a total of at least 20 kernels when all ears were considered. Similarly, DE30 represents the portion of doubled DH0 plants that produced a total of at least 30 kernels when all ears were considered, and DE50 represents the portion of doubled DH0 plants that produced a total of at least 50 kernels when all ears were considered.
Furthermore, the above doubling efficiencies were calculated once by considering only the kernels that formed on the primary ear of each plant (Ear1), once by considering only the kernels that formed on the primary and secondary ear of each plant (Ear2), once by considering only the kernels that formed on the primary, secondary, and tertiary ear of each plant (Ear3), and finally by considering all the kernels that formed on all the ears of each plant (Earall).

[2] = test system: Diploid maize plants of a common inbred line; assay: Tiller induction in diploids (Example 6); type: in vivo
Protocol: Diploid maize plants of a common inbred line were subjected to a tiller induction treatment comprising drenching the soil surrounding the roots with 100 mL of a 2.5% PBZ solution (v/v; 0.4% of active ingredient) approximately one week after germination and then allowed to grow to sexual maturity in 10-inch pots a greenhouse. A control group of plants were grown under identical circumstances except that they were not subjected to the tiller induction treatment.
Three treatment groups were then formed from the tillers: tillers of the “Co-hab” treatment were allowed to continue growing in the same pot with the mother plant; those of the “-Mother” treatment also remained in the same pot, but the mother plant was removed from the pot; and those of the “Transplanted” treatment group were transplanted from the pot containing the mother plant into separate 10-inch pots, one plant per pot. Any naturally-occurring tillers produced by the control group were allowed to grow in the same pot as the mother plant, similar to the co-hab treatment. All plants were allowed to grow to sexual maturity and self-pollinated when silks and tassels formed. When seed set was complete, the average total number of seeds produced by all plants deriving from the same mother plant seed were counted and plotted in FIG. 3.

[3] = Ear1 (primary ear only), 60 mL 2.5% PBZ 29 days after colchicine doubling
[4] = Ear2 (primary and secondary ear), 60 mL 2.5% PBZ after colchicine doubling
[5] = Ear3 (primary, secondary and tertiary ear), 60 mL 2.5% PBZ after colchicine doubling
[6] = EarAll (all ears), 60 mL 2.5% PBZ after colchicine doubling
[7] = 100 mL 2.5% PBZ soil drench approx. one week after germination

In the case of `CC(C)(C)[C@H](O)[C@H](Cc1ccc(Cl)cc1)n1cncn1` (relative stereo) [PBZ, (2S,3S)-1-(4-chlorophenyl)-4,4-dimethyl-2-(1,2,4-triazol-1-yl) pentan-3-ol], the DE04 [1, 3] is reported as 71%, the DE20 [1, 3] is reported as 37% and the DE30 [1, 3] is reported as 26%. It also gave a DE50 [1, 3] of 23%, a DE04 [1, 4] of 76% and a DE20 [1, 4] of 59%. The DE30 [1, 4] was 47%, the DE50 [1, 4] was 36% and the DE04 [1, 5] was 76%. The DE20 [1, 5] was 65%, the DE30 [1, 5] was 58% and the DE50 [1, 5] was 50%. It also gave a DE04 [1, 6] of 76%, a DE20 [1, 6] of 68% and a DE30 [1, 6] of 58%. The DE50 [1, 6] was 52%, the “morphology of mother plants” value [2, 7] was “shortened internodes” and the “tiller production by mother plants” value [2, 7] was “induced the mother plants to produce tillers”. For the same compound, the “average total seeds per plant vs control group” value ([2]; Transplanted treatment group (tillers transplanted to separate pots)) was “more than twice the number of seeds as the control group”.
